Data as given in US12023335B2, “Method for treating pancreatic cancer” (PTC THERAPEUTICS, INC., priority 2018, dated 2024).
“Also recorded” adds a separate entry of the source.

How the values were obtained:
[1] = test system: CYCLIN B1; test: Western blot for CYCLIN B1 on tumors from KPC mice; type: in vivo; conditions: 10 mg/kg; biopsy 48 hours before first dose vs necropsy 24 hours after third dose (FIGS. 5b, 5c)
Procedure: (§1) Western blotting was carried out on lysates isolated from treated cells. Cells were lysed using RIPA buffer (50 mM Tris, pH 7.4, 150 mM NaCl, 1% Nonidet P-40, 0.1% SDS, 0.5% deoxycholate) supplemented with cOmplete™ EDTA-free Protease Inhibitor Cocktail (Sigma, 11836170001) and Halt™ Phosphatase Inhibitor Cocktail (ThermoFisher, 78420). Lysates were quantified using the Pierce BCA Protein Assay Kit (ThermoFisher, 23227), diluted in SDS sample buffer, resolved by SDS-PAGE (15-30 μg/sample), and transferred onto PVDF membranes. Membranes were blocked with 5% w/v nonfat dry milk in TBS-T (0.1% Tween20) and primary antibodies were incubated overnight at 4° C., diluted in 5% BSA in TBS-T at the indicated concentrations. HRP-conjugated secondary antibodies were incubated in blocking buffer for 1 hour at room temperature before detection using Super Digital-ECL™ substrate solution (Kindle Biosciences, R1002). (FIG. 5b, FIG. 10a and FIG. 11b)

[2] = test system: tubulin; test: Analysis of free tubulin content in Aspc1 cells (fractionation, western blot); type: cell-based, human; conditions: 3.0 μM, 2 hours, relative to vehicle, COL and TAX (FIGS. 11a, 11b)
Procedure: as §1
Free heterodimer tubulin was separated from tubulin incorporated into microtubules according to manufacturer's recommendations using the Microtubule/Tubulin In Vivo Assay Biochem Kit (Cytoskeleton, #BK038). Cells were seeded in 12-well plates such that ˜16 hours later they would be approximately 50-60% confluent. […]

[3] = test system: Aspc1 cells; test: Active caspase 3 apoptosis flow cytometry in Aspc1 cells; type: cell-based, human; conditions: 24, 48, 72 hours, relative to vehicle (FIGS. 3a, 3b)
Procedure: For active Caspase-3 (ActCasp3) staining, the Caspase 3 (active) FITC Staining Kit (Abcam, ab65613) was used according to manufacturer's instructions. Cells were seeded in 12-well plates such that ˜16 hours later they would be approximately 50-60% confluent. […] Samples were analyzed on a BD LSR II™ and analyzed by FlowJo software. (FIG. 3a and FIG. 3b)

[4] = target: T1, tubulin from porcine brain (Sus scrofa, UniProt P02550+P02554); test: Cell-free tubulin polymerization assay; type: biochemical; conditions: 0.12, 0.37, 1.11, 3.33 and 10 μM (FIGS. 11e, 11f)
T1 construct: which uses >99% pure tubulin from porcine brain; purchased Cytoskeleton #BK011P; host or cells: porcine brain (tissue-purified)
T1 sequence (P02554 whole entry): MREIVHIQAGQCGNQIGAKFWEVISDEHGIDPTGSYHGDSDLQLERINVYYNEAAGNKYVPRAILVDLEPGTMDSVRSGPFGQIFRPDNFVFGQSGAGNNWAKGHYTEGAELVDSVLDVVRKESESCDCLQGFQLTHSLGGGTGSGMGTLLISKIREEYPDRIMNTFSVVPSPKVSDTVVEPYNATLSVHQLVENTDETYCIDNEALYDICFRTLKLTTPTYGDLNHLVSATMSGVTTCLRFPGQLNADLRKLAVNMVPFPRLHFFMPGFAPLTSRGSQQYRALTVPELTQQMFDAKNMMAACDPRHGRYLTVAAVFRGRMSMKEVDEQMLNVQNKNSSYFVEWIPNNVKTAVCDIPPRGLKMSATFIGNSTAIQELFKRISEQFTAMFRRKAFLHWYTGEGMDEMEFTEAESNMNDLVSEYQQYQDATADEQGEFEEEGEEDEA
T1 sequence (P02550 whole entry): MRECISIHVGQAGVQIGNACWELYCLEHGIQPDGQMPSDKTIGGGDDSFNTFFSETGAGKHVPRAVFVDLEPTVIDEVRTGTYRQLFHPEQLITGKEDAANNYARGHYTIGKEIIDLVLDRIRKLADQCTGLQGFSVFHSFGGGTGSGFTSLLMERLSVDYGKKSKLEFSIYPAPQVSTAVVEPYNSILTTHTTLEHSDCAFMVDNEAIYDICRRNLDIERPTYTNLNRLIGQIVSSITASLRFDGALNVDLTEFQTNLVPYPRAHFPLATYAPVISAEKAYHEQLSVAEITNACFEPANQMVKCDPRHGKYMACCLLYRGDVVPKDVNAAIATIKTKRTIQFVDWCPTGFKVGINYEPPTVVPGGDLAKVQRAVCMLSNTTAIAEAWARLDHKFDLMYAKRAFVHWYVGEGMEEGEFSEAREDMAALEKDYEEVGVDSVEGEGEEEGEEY
Procedure: Assays were carried out according to manufacturer's recommendations using the fluorescence-based tubulin polymerization assay kit from Cytoskeleton (#BK011P) which uses >99% pure tubulin from porcine brain. All drugs used were dissolved in DMSO and then diluted in ultrapure water to 10× final concentration. Final percentage of DMSO was kept constant for all samples. Tubulin was prepared by resuspension at 2 mg/mL in 80 mM PIPES pH 6.9, 2.0 mM MgCl2, 0.5 mM EGTA, 1.0 mM GTP, 15% glycerol, and 10 μM fluorescent reporter. All drug samples (10×) were added to a pre-warmed half-area 96-well plate (Corning Costar, 3686) in duplicate, and then warmed to 37° C. for 1 min. Tubulin (50 μL/well) was then added to all wells, and the plate was placed in a plate reader pre-warmed to 37° C. The plate was mixed by medium, orbital shaking for 5 seconds, and fluorescence measured every 60 seconds for 90 minutes (Ex: 340-360+/−20 nm, Em: 410-460 nm+/−20 nm) in a BioTek Synergy 2 plate reader. Polymerization rates (fluorescence units/minute) were determined by measuring the maximal slope (by linear regression) of the linear portion of the growth phase of the polymerization curve. (FIG. 11e and FIG. 11f)

Cc1nc2ccc(F)cc2n1-c1nc(N)c(F)c(Nc2ccc(C(F)(F)F)cc2)n1 [Compound 1, 5-fluoro-2-(6-fluoro-2-methyl-1H-benzo[d]imidazol-1-yl)-N4-[4-(trifluoromethyl)phenyl]pyrimidine-4,6-diamine]
CYCLIN B1 normalized to VINCULIN in tumors [1]: consistent reduction in Cyclin B1 relative to Vinculin
free tubulin vs microtubules in cell lysate fractions [2]: significant fold-change increase in prevention of tubulin formation
total apoptotic Aspc1 cells (active caspase 3+) [3]: time-dependent increase in cell biomarkers that indicate a corresponding increase in cell apoptosis
tubulin polymerization (fluorescence units/minute) [4]: function as a microtubule polymerization inhibitor; also recorded: dose-dependent decrease in tubulin polymerization; also recorded: directly inhibits microtubule formation
